Test results published in patent publication US8071612B2, “6-alkenyl and 6-phenylalkyl substituted 2-quinolinones and 2-quinoxalinones as poly(ADP-ribose) polymerase inhibitors” (Janssen Pharmaceutica, NV, priority 2004, dated 2011).

Key:
PARP-1 enzyme [1] = target: T1, PARP-1 enzyme (Homo sapiens, UniProt P09874); assay: In vitro Scintillation Proximity Assay (SPA) for PARP-1 inhibitory activity; type: biochemical; conditions: nicked DNA activated PARP-1, [3H]-NAD+, biotinylated histones; read-out: In vitro SPA pIC50 (converted)
T1 construct: made in house
Experimental: Compounds of the present invention were tested in an in vitro assay based on SPA technology (proprietary to Amersham Pharmacia Biotech).
In principle, the assay relies upon the well established SPA technology for the detection of poly(ADP-ribosyl)ation of biotinylated target proteins, i.e histones. This ribosylation is induced using nicked DNA activated PARP-1 enzyme and [^3H]-nicotinamide adenine dinucleotide ([^3H]-NAD^+) as ADP-ribosyl donor.
As inducer of PARP-1 enzyme activity, nicked DNA was prepared. For this, 25 mg of DNA (supplier: Sigma) was dissolved in 25 ml DNAse buffer (10 mM Tris-HCl, pH 7.4; 0.5 mg/ml Bovine Serum Albumine (BSA); 5 mM MgCl2.6H2O and 1 mM KCl) to which 50 μl DNAse solution (1 mg/ml in 0.15 M NaCl) was added. After an incubation of 90 min. at 37° C., the reaction was terminated by adding 1.45 g NaCl, followed by a further incubation at 58° C. for 15 min. The reaction mixture was cooled on ice and dialysed at 4° C. for respectively 1.5 and 2 hours against 1.5 l of 0.2 M KCl, and twice against 1.5 l of 0.01 M KCl for 1.5 and 2 h respectively. The mixture was aliquoted and stored at −20° C. Histones (1 mg/ml, type II-A, supplier: Sigma) were biotinylated using the biotinylation kit of Amersham and stored aliquoted at −20° C. A stock solution of 100 mg/ml SPA poly(vinyl toluene) (PVT) beads (supplier: Amersham) was made in PBS. A stock solution of [^3]H-NAD^+ was made by adding 120 μl of [^3H]-NAD^+ (0.1 mCi/ml, supplier: NEN) to 6 ml incubation buffer (50 mM Tris/HCl, pH 8; 0.2 mM DTT; 4 mM MgCl2). A solution of 4 mM NAD^+ (supplier: Roche) was made in incubation buffer (from a 100 mM stock solution in water stored at −20° C.). The PARP-1 enzyme was produced using art known techniques, i.e. cloning and expression of the protein starting from human liver cDNA. Information concerning the used protein sequence of the PARP-1 enzyme including literature references can be found in the Swiss-Prot database under primary accession number P09874. Biotinylated histones and PVT-SPA beads were mixed and pre-incubated for 30 min. at room temperature. PARP-1 enzyme (concentration was lot dependent) was mixed with the nicked DNA and the mixture was pre-incubated for 30 min. at 4° C. Equal parts of this histones/PVT-SPA beads solution and PARP-1 enzyme/DNA solution were mixed and 75 μl of this mixture together with 1 μl of compound in DMSO and 25 μl of [^3H]-NAD^+ was added per well into a 96-well microtiterplate. The final concentrations in the incubation mixture were 2 μg/ml for the biotinylated histones, 2 mg/ml for the PVT-SPA beads, 2 μg/ml for the nicked DNA and between 5-10 μg/ml for the PARP-1 enzyme. After incubation of the mixture for 15 min. at room temperature, the reaction was terminated by adding 100 μl of 4 mM NAD^+ in incubation buffer (final concentration 2 mM) and plates were mixed.
The beads were allowed to sediment for at least 15 min. and plates transferred to a TopCountNXT™ (Packard) for scintillation counting, values were expressed as counts per minute (cpm). For each experiment, controls (containing PARP-1 enzyme and DMSO without compound), a blank incubation (containing DMSO but no PARP-1 enzyme or compound) and samples (containing PARP-1 enzyme and compound dissolved in DMSO) were run in parallel. All compounds tested were dissolved and eventually further diluted in DMSO. In first instance, compounds were tested at a concentration of 10^−5 M or 10^−6M. […] In each test, the blank value was subtracted from both the control and the sample values. The control sample represented maximal PARP-1 enzyme activity. For each sample, the amount of cpm was expressed as a percentage of the mean cpm value of the controls. When appropriate, IC50-values (concentration of the drug, needed to reduce the PARP-1 enzyme activity to 50% of the control) were computed using linear interpolation between the experimental points just above and below the 50% level. […]

PARP-1 enzyme [2] = target: T1, PARP-1 enzyme; assay: In vitro filtration assay for PARP-1 inhibitory activity; type: biochemical; conditions: nicked DNA activated PARP-1, [32P]-NAD, histones; read-out: In vitro filtration assay pIC50 (converted)
Experimental: Compounds of the present invention were tested in an in vitro filtration assay assessing PARP-1 activity (triggered in the presence of nicked DNA) by means of its histone poly (ADP-ribosyl)ation activity using [^32P]-NAD as ADP-ribosyl donor. The radioactive ribosylated histones were precipitated by trichloroacetic acid (TCA) in 96-well filterplates and the incorporated [^32P] measured using a scintillation counter
A mixture of histones (stock solution: 5 mg/ml in H2O), NAD (stock solution: 100 mM in H2O), and [^32P]-NAD^+ in incubation buffer (50 mM Tris/HCl, pH 8; 0.2 mM DTT; 4 mM MgCl2) was made. A mixture of the PARP-1 enzyme (5-10 μg/ml) and nicked DNA was also made. The nicked DNA was prepared as described in the in vitro SPA for PARP-1 inhibitory activity. Seventy-five μl of the PARP-1 enzyme/DNA mixture together with 1 μl of compound in DMSO and 25 μl of histones-NAD^+/[^32P]-NAD^+ mixture was added per well of a 96-well filterplate (0.45 μm, supplier Millipore). The final concentrations in the incubation mixture were 2 μg/ml for the histones, 0.1 mM for the NAD^+, […] (0.5 μC) for the [^32P]-NAD^+ and 2 μg/ml for the nicked DNA. Plates were incubated for 15 min. at room temperature and the reaction was terminated by the addition of 10 μl ice cold 100% TCA followed by the addition of 10 μl ice-cold BSA solution (1% in H2O). The protein fraction was allowed to precipitate for 10 min. at 4° C. and plates were vacuum filtered. The plates were subsequently washed with, for each well, 1 ml of 10% ice cold TCA, 1 ml of 5% ice cold TCA and 1 ml of 5% TCA at room temperature. Finally 100 μl of scintillation solution (Microscint 40, Packard) was added to each well and the plates were transferred to a TopCountNXT™ (supplier: Packard) for scintillation counting and values were expressed as counts per minute (cpm). For each experiment, controls (containing PARP-1 enzyme and DMSO without compound), a blank incubation (containing DMSO but no PARP-1 enzyme or compound) and samples (containing PARP-1 enzyme and compound dissolved in DMSO) were run in parallel. All compounds tested were dissolved and eventually further diluted in DMSO. In first instance, compounds were tested at a concentration of 10^−5M. […] In each test, the blank value was subtracted from both the control and the sample values. The control sample represented maximal PARP-1 enzyme activity. For each sample, the amount of cpm was expressed as a percentage of the mean cpm value of the controls. When appropriate, IC50-values (concentration of the drug, needed to reduce the PARP-1 enzyme activity to 50% of the control) were computed using linear interpolation between the experimental points just above and below the 50% level. Herein the effects of test compounds are expressed as pIC50 (the negative log value of the IC50-value). As a reference compound, 4-amino-1,8-naphthalimide was included to validate the filtration assay.

T1 sequence (P09874 whole entry): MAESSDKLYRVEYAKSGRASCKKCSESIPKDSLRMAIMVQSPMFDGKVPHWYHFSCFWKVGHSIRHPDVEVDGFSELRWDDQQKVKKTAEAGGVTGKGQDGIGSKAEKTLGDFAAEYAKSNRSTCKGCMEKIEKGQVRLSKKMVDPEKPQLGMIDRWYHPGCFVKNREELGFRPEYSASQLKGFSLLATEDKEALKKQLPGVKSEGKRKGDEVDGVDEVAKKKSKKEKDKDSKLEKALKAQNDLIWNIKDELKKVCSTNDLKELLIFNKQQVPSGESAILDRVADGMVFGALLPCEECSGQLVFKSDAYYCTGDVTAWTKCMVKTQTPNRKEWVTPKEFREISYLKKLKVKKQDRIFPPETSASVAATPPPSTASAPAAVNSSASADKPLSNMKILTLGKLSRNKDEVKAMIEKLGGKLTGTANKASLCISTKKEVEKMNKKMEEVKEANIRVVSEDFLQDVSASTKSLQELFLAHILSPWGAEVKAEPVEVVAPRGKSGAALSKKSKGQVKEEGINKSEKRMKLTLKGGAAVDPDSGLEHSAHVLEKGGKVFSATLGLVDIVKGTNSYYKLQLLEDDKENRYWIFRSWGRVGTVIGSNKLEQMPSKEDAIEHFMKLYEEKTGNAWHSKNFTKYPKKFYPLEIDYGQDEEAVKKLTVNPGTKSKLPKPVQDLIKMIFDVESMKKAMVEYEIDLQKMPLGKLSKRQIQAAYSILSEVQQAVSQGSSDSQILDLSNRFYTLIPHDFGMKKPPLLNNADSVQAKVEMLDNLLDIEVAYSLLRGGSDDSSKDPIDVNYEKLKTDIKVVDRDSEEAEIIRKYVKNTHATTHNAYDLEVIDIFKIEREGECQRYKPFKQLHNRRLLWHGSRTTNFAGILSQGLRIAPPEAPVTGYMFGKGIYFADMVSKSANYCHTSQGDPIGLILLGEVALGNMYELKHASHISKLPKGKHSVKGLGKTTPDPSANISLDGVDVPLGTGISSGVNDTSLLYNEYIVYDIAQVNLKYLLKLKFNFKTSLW

| IC50 (PARP-1 enzyme [1]) [nM] | IC50 (PARP-1 enzyme [2]) [nM] | Compound |
| --- | --- | --- |
| 925 | 2330 | Cc1cc2cc(C(NCCC(=O)c3ccccc3)c3ccccc3)ccc2[nH]c1=O (centres unmarked) [Compound 27] |
| 226 | 773 | CCc1cc2cc(C(OCCN(C)C)c3ccccc3)ccc2[nH]c1=O (centres unmarked) [Compound 28] |
| 796 | 4780 | Cc1cc2cc(C(NCCO)c3ccccc3)ccc2[nH]c1=O (centres unmarked) [Compound 29] |
| 362 | 1800 | CCc1nc2cc(C(c3ccccc3)n3cncn3)ccc2[nH]c1=O (centres unmarked) [Compound 30] |
| 302 | 1170 | CCc1cc2cc(C(c3cccc(C(F)(F)F)c3)N3CCC(=O)CC3)ccc2[nH]c1=O (centres unmarked) [Compound 37] |
| 316 | 2650 | CCc1cc2cc(C(c3ccc(Cl)cc3)N3CCC(=O)CC3)ccc2[nH]c1=O (centres unmarked) [Compound 38] |
| 596 | 10000 | CCc1cc2cc(C(c3ccccc3)N3CCN(C)CC3)ccc2[nH]c1=O (centres unmarked) [Compound 39] |
| 211 | 2100 | CCc1cc2cc(C(c3cccc(C(F)(F)F)c3)n3cnnc3)ccc2[nH]c1=O (centres unmarked) [Compound 72] |
| 252 | 1740 | CCc1cc2cc(C(c3cccc(Cl)c3)N3CCC(=O)CC3)ccc2[nH]c1=O (centres unmarked) [Compound 77] |
| 197 | 2370 | CCc1cc2cc(C(c3cccc(C(F)(F)F)c3)n3cncn3)ccc2[nH]c1=O (centres unmarked) [Compound 78] |
| 692 | 3910 | CCc1cc2cc(C(c3cccc(C(F)(F)F)c3)N3CCN(C)CC3)ccc2[nH]c1=O (centres unmarked) [Compound 80] |
| 305 | 3970 | CCc1cc2cc(C(c3ccccc3)N3CCC(=O)CC3)ccc2[nH]c1=O (centres unmarked) [Compound 81] |
| 189 | 1190 | Cc1cc2cc(C(C)(C#N)c3ccccc3)ccc2[nH]c1=O (centres unmarked) [Compound 85] |
| 292 | 2240 | CCc1cc2cc(C(c3ccc(Cl)cc3)N3CCC(NCCOC)CC3)ccc2[nH]c1=O (centres unmarked) [Compound 86] |
| 589 | 4950 | CCc1cc2cc(C(c3cccc(C(F)(F)F)c3)N3CCC(NCCOC)CC3)ccc2[nH]c1=O (centres unmarked) [Compound 87] |
| 264 | 4070 | Cc1cc2cc(C(c3ccccc3)C3CCCN(C)C3)ccc2[nH]c1=O (centres unmarked) [Compound 88] |
| 451 | 2680 | Cc1cc2cc(C(CCN3CCCCC3)c3ccccc3)ccc2[nH]c1=O (centres unmarked) [Compound 89] |
| 187 | 828 | CCc1cc2cc(C(CCN(C)C)c3cccc(C(F)(F)F)c3)ccc2[nH]c1=O (centres unmarked) [Compound 91] |
| 105 | 1180 | CCc1cc2cc(C(CCN(C)C)c3ccccc3)ccc2[nH]c1=O (centres unmarked) [Compound 92] |

| IC50 (PARP-1 enzyme [1]) [nM] | IC50 (PARP-1 enzyme [2]) [nM] | Compound |
| --- | --- | --- |
| 508 | 2150 | Cc1cc2cc(C(c3ccccc3)N3CCCCC3)ccc2[nH]c1=O (centres unmarked) [Compound 93] |
| 665 | 3560 | Cc1cc2cc(C(c3cccc(Cl)c3)n3ccnc3)ccc2[nH]c1=O (centres unmarked) [Compound 94] |
| 818 | 6350 | Cc1cc2cc(C(c3ccc(Cl)cc3)n3ccnc3)ccc2[nH]c1=O (centres unmarked) [Compound 95] |
| 69.8 | 352 | CCc1cc2cc(C(NC=O)c3ccccc3)ccc2[nH]c1=O (centres unmarked) [Compound 96] |
| 274 | 3830 | Cc1cccc(C(NC=O)c2ccc3[nH]c(=O)c(C)cc3c2)c1 (centres unmarked) [Compound 98] |
| 289 | 1470 | Cc1cc2cc(C(NC=O)c3ccc4c(c3)OCO4)ccc2[nH]c1=O (centres unmarked) [Compound 99] |
| 502 | 3510 | CCOC(=O)c1ccc(C(NC=O)c2ccc3[nH]c(=O)c(C)cc3c2)cc1 (centres unmarked) [Compound 100] |
| 773 | 2840 | COc1cccc(C(NC=O)c2ccc3[nH]c(=O)c(C)cc3c2)c1 (centres unmarked) [Compound 101] |
| 366 | 1590 | Cc1cc2cc(C(NC=O)c3ccc(F)cc3)ccc2[nH]c1=O (centres unmarked) [Compound 102] |
| 902 | 7730 | Cc1cc2cc(CCC(NC=O)c3ccccc3)ccc2[nH]c1=O (centres unmarked) [Compound 103] |
| 501 | 2380 | Cc1cc2cc(C(NC=O)c3cccc(Cl)c3)ccc2[nH]c1=O (centres unmarked) [Compound 104] |
| 618 | 1470 | Cc1cc2cc(C(NC=O)c3ccc(Cl)cc3)ccc2[nH]c1=O (centres unmarked) [Compound 105] |
| 493 | 1680 | Cc1cc2cc(C(NC=O)c3ccccc3)ccc2[nH]c1=O (centres unmarked) [Compound 106] |
| 841 | 10000 | COc1cccc(C(O)c2ccc3[nH]c(=O)c(C)cc3c2)c1 (centres unmarked) [Compound 107] |
| 755 | 2320 | CCOC(=O)c1ccc(C(O)c2ccc3[nH]c(=O)c(C)cc3c2)cc1 (centres unmarked) [Compound 109] |
| 277 | 2580 | CCc1cc2cc(C(O)c3ccccc3)ccc2[nH]c1=O (centres unmarked) [Compound 110] |
| 611 | 4430 | Cc1cc2cc(C(O)c3ccc4c(c3)OCO4)ccc2[nH]c1=O (centres unmarked) [Compound 111] |
| 689 | 2710 | C#CC(O)(c1ccccc1)c1ccc2[nH]c(=O)c(C)cc2c1 (centres unmarked) [Compound 112] |
